The values that follow come from patent US20200390825A1, “PLURIPOTENT STEM CELL-DIRECTED MODEL OF AUTOSOMAL DOMINANT POLYCYSTIC KIDNEY DISEASE FOR DISEASE MECHANISM AND DRUG DISCOVERY” (University of Southern California, priority 2019, published 2020).

For series [1], the system named is PKD2−/− organoids. As to the kind of experiment: Primary protein kinase inhibitor screen for cyst formation in mini-kidney organoids. Type of series: cell-based, human. To be noted: 1 μM, 9 wells on 3 plates per compound. As for the experimental part:
The autoclaved methylcellulose was dissolved in 60° C. 450 ml of Advanced RPMI 1640 Medium (Gibco, 12633020).
Several commercially available libraries of pathway annotated protein kinase inhibitors were purchased from Calbiochem for screening: EMD protein kinase inhibitor 1 (Cat. No. 539744); EMD-protein kinase inhibitor-2 (Cat. No. 539745); EMD protein kinase inhibitor-3 (Cat. No. 539746); EMD protein kinase inhibitor-4 (Cat. No. 539747). All screens were carried out in the Choi Family Therapeutic Screening Facility in the Broad-CIRM center.
Protein kinase inhibitors were diluted in DMSO to make 10 μM stocks. […] The plates were loaded on the ImageXpress Micro System for live imaging right after compounds were loaded. The imaging was performed using the “Standard” algorithm, at 4× magnification, 2 camera binning, with laser-based and image-based focusing enabled, and well-to-well autofocus was set to “focus on plate bottom and well bottom”.
To gain new insight into pathways specifically regulating cystic growth and to validate the mini-organoid system as a robust drug screening tool, we screened a commercial library of pathway annotated protein kinase inhibitors (FIG. 19). The primary screen was performed using a library of 247 protein kinase inhibitors (PKIs) (at 1 μM) on PKD2−/− organoids, with 9 wells on 3 separate plates per compound. […] To increase the stringency of the screen, only compounds identified as “hits” in all 9 wells were considered true “hits” and selected for a secondary screen.

The next series relates to PKD1−/− organoids. Description: Secondary screen of cystogenesis, dosage-dependent responses. Type of series: cell-based, human. As for the experimental part: (§1) 15 g of methelcellulose powder (Sigma-Aldrich, M0512) was autoclaved in a 500-ml Erlenmeyer flask. The autoclaved methylcellulose was dissolved in 60° C. 450 ml of Advanced RPMI 1640 Medium (Gibco, 12633020). 50 ml of Advanced RPMI 1640 Medium+1× Glutamax (Gibco, 35050079) and 1% Penicillin-Streptomycin (Invitrogen, 15070063) was then added at room temperature to a final volume of 500 ml. The final stock solution was cleared by centrifugation at 4000×g for 2 hours. The clear viscous supernatant was used for the spheroid assay. For mini-organoids culture and imaging, 170 μl of 20% methycellulose stock solution+80% basal differentiation media mix was added to each well of a 96-well plate (brand).
(§2) At dd13, miniature kidney organoids were transferred from the EZSPHERE plates to a sterile 35-mm dish by gentle pipetting with wide-bore P1000 tips. Under a dissecting microscope, 10-12 mini-organoids in 10 μl of media were picked up using a P20 pipetman and released into a well of the methylcellulose plate. A P20 pipette tip was then used to adjust the mini-organoids' positions in the well to avoid clustering. The mini-organoids then dispersed at the bottom of the well.
Compounds that were scored as true “hits” from the primary screen were selected for validations in both PKD1−/− and PKD2−/− mutant organoids. […]

The test system of series [2] is PKD2−/− organoids. The following applies: for Inhibition of cyst formation / cystic growth: PKD2−/− mutant organoids, 0.1 μM. As to the method: as §1, §2
Compounds that were scored as true “hits” from the primary screen were selected for validations in both PKD1−/− and PKD2−/− mutant organoids. The compounds were diluted in DMSO to 1, 10 or 100 μM via serial dilution to make the working stocks. At dd14, 20 μl of each diluted compound or DMSO was added to a methylcellulose well with embedded organoids (180 μl) to achieve a final concentration of 0.1, 1 or 10 μM. The plates were imaged for 7 days using the ImageXpress Micro System as described above.
Compounds that inhibited cyst formation in both PKD1−/− and PKD2−/− mini-organoids were classified as final “hits”.
Tolvaptan is the first FDA approved pharmacological treatment for ADPKD targeting cAMP levels through the inhibition of AVPR2.
We examined dosage-dependent responses by applying 3 different compound concentrations of each compound: 0.1, 1 and 10 μM.

Take `NC(=O)Nc1sc(-c2ccccc2)cc1C(N)=O` [IKK-2 inhibitor VI, (5-phenyl-2-ureido)thiophene-3-carboxamide]: in the series on PKD2−/− organoids [1], the “Primary screen outcome at dd20 (cystic growth / cell growth inhibition)” value was “more specific inhibition of cystic growth”.
As to `CC(C)C[C@H](NC(=O)[C@H](CCc1ccccc1)NC(=O)CN1CCOCC1)C(=O)N[C@@H](Cc1ccccc1)C(=O)N[C@@H](CC(C)C)C(=O)[C@@]1(C)CO1` [Carfilzomib], the “Concentration at which cyst formation was prevented” value in the series on PKD1−/− organoids (PKD1−/− cystic organoids, tested 0.1, 1, 10 μM) is recorded as “only at the highest concentration”. Moreover, the “Inhibition of cyst formation / cystic growth” value with PKD2−/− organoids [2] is “prevented cyst formation effectively”.
In the case of `CC1=C(O)C(=O)C=C2C1=CC=C1[C@@]2(C)CC[C@@]2(C)[C@@H]3C[C@](C)(C(=O)O)CC[C@]3(C)CC[C@]12C` [Celastrol], the “Effect on cell growth” value with PKD2−/− organoids [2] (PKD2−/− organoids, 10 μM) is “more broadly detrimental to cell growth”. The “Screen outcome category” value with PKD2−/− organoids [2] (PKD2−/− organoids, at 1) is recorded as “hit”.
In the case of `O=C1c2ccccc2-[n+]2ccc3c([nH]c4ccccc43)c21` [fascaplysin], the “Primary screen outcome at dd20 (cystic growth / cell growth inhibition)” value in the series with PKD2−/− organoids [1] was “more specific inhibition of cystic growth”.
On the same count and under the same terms, under `Nc1ncnc2n[nH]c(Nc3ccc(F)cc3)c12` [MNK1 inhibitor] stands “more specific inhibition of cystic growth”; under `O=C1NCCc2[nH]c(-c3ccncc3)cc21` [Cdc7/Cdk9 inhibitor], “more specific inhibition of cystic growth”.
Take `Nc1ccc2ncnc(NCCc3ccc(Oc4ccccc4)cc3)c2c1` [NF-κB activation inhibitor]: the “Inhibition of cystic growth” value in the series on PKD1−/− organoids (PKD1−/− mutants, 0.1 μM) was “highly effective inhibiting cystic growth”. For the same molecule, the “Inhibition of cyst formation / cystic growth” value in the series on PKD2−/− organoids [2] was “highly effective inhibiting cystic growth”.
Take `O=C(c1ccc(Nc2nccc(-c3cc4ccccc4s3)n2)cc1)N1CCC(N2CCCC2)CC1` [IKK inhibitor VII]: the “Primary screen outcome at dd20 (cystic growth / cell growth inhibition)” value in the series on PKD2−/− organoids [1] was “more specific inhibition of cystic growth”.
The same measure, in the same setting: under `COc1cccc(-c2cc(=O)c3ccccc3o2)c1N` [PD 98059] stands “more specific inhibition of cystic growth”; under `Cc1ncc2ccccc2c1C#N` [4-Cyano-3-methylisoquinoline], “more specific inhibition of cystic growth”.
On the same count and under the same terms, under `CN[C@@H]1C[C@H]2O[C@@](C)([C@@H]1OC)n1c3ccccc3c3c4c(c5c6ccccc6n2c5c31)C(=O)N[C@H]4O` [UCN-02, 7-epi-hydroxystaurosporine] stands “more specific inhibition of cystic growth”.
On the same count and under the same terms, under `O=C1NC(=NCc2cccs2)S/C1=C\c1ccc2ncccc2c1` [Cdk1 inhibitor IV RO-3306] stands “more specific inhibition of cystic growth”.
